# In US20120263764A1, “COMPOSITIONS AND METHODS FOR INHIBITING AND/OR MODULATING EFFECTOR T-CELLS INVOLVED IN INFLAMMATORY NEURODEGENERATIVE DISEASE” (Revalesio Corporation, priority 2011, published 2012):
# Test: Body weight in MBP EAE rat model
# Format: in vivo, Lewis rats
# Details: Group 2F; at study termination
# From the text: (§1) Body weight loss can be the first sign of disease initiation, while a sudden marked weight gain tends to accompany remission of EAE symptoms. Therefore, determination of individual body weights of animals was made shortly before EAE induction on study day 0 (study commencement) and thereafter on a daily basis throughout the entire 21-day observation period.
# as §1, with “This working EXAMPLE discloses the weight change of rats subjected to the experiment described in Example 7. Body” for “Body”, “and” for “and thereafter”, “the” for “the entire”
structure (smiles),measurement,value
C[C@@H]1C[C@H]2[C@@H]3CCC4=CC(=O)C=C[C@]4(C)[C@@]3(F)[C@@H](O)C[C@]2(C)[C@@]1(O)C(=O)CO [Dexamethasone],mean body weight lost,2%
